Source: BindingDB's records for patent US9427428 (Janssen Ireland, 2016)

Molecular target: T1, Genome polyprotein [810-3010] (Hepatitis C virus genotype 1b (isolate Con1), UniProt Q9WMX2)
T1 construct: 810-3010
Test: Stable Replicon Assay
Source text: The assay utilized the stably transfected cell line Huh-7 luc/neo (hereafter referred to as Huh-Luc). This cell line harbors an RNA encoding a bicistronic expression construct comprising the wild type NS3-NS5B regions of HCV type 1b translated from an Internal Ribosome Entry Site (IRES) from encephalomyocarditis virus (EMCV), preceded by a reporter portion (FfL-luciferase), and a selectable marker portion (neoR, neomycine phosphotransferase). The construct is flanked by 5' and 3' NTRs (non-translated regions) from HCV type 1b. Continued culture of the replicon cells in the presence of G418 (neoR) is dependent on the replication of the HCV RNA. The stably transfected replicon cells that replicate HCV RNA autonomously and to high levels, encoding inter alia luciferase, were used for screening the antiviral compounds. The replicon cells were plated in 384 well plates in the presence of the test and control compounds which were added in various concentrations. Following an incubation of three days, HCV replication was measured by assaying luciferase activity (using standard luciferase assay substrates and reagents and a Perkin Elmer ViewLux™ ultraHTS microplate imager). […] The inhibitory activity of the compound was monitored on the Huh-Luc cells, enabling a dose-response curve for each test compound.

T1 sequence (Q9WMX2 810-3010): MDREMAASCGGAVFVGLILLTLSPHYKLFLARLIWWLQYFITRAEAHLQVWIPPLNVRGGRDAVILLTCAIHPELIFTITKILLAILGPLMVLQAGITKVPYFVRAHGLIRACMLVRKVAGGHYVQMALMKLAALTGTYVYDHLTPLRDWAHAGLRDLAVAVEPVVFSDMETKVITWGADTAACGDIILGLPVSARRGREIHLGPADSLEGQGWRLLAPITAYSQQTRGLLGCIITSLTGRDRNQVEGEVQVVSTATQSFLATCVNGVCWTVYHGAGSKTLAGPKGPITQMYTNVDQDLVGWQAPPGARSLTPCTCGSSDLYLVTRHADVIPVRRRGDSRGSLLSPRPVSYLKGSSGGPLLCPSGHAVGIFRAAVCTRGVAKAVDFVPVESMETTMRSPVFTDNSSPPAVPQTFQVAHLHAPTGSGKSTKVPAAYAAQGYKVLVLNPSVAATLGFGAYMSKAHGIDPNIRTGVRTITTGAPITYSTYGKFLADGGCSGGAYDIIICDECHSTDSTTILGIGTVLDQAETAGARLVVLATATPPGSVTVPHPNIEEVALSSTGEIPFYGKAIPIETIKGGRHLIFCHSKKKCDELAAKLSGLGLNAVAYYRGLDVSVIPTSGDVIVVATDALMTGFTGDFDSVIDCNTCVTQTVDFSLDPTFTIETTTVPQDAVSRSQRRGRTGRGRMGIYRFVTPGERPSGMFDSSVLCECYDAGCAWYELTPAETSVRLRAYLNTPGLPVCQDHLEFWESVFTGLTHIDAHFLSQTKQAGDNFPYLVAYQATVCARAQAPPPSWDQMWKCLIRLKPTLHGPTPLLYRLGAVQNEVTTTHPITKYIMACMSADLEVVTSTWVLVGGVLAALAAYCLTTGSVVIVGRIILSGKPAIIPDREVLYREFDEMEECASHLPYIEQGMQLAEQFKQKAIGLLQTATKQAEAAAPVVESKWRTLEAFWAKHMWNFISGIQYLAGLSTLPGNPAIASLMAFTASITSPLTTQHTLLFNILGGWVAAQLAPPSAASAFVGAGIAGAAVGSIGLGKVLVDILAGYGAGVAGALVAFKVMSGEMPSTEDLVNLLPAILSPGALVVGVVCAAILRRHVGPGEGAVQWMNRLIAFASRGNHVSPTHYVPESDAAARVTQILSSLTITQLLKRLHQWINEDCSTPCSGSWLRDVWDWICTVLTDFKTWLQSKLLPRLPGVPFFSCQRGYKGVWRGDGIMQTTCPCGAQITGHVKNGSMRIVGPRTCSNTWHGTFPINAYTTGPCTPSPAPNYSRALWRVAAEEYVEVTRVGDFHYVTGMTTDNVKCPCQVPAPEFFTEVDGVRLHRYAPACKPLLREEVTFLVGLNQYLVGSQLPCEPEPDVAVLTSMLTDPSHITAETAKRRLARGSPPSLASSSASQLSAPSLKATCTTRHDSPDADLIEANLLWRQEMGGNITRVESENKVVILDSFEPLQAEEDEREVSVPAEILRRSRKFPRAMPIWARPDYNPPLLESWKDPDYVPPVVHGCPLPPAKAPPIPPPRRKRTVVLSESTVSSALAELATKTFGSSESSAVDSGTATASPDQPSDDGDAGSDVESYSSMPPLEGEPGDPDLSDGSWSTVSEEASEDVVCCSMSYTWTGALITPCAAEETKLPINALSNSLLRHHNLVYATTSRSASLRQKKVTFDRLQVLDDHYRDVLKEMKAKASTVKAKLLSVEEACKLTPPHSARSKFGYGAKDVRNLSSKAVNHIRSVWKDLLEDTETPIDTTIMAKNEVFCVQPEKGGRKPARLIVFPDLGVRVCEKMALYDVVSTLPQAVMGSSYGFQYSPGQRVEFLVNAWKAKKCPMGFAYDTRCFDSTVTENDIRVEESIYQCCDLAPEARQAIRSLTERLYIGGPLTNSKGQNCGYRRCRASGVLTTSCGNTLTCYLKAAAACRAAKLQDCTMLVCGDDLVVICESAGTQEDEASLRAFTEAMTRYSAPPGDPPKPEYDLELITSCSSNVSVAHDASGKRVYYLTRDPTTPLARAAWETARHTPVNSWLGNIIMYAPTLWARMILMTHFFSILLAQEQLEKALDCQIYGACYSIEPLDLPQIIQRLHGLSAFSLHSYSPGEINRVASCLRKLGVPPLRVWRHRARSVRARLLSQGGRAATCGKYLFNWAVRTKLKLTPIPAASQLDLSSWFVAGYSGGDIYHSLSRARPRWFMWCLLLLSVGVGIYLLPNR

CC[C@H](C)[C@H](NC(=O)OC)C(=O)N1CCC[C@H]1c1ncc(-c2ccc3cc(-c4ccc5[nH]c([C@@H]6CCCN6C(=O)[C@@H](NC(=O)OC)[C@@H](C)OC)nc5c4)ccc3c2)[nH]1 [US9427428, 21]
EC50: 2.2 nM
